In general, IC50 refers to the concentration at which inhibition is half-maximal.

Here are results for 18 compounds from PMC5926251 (Japanese Journal of Cancer Research : Gann, 2000).

For one experiment, the target named is DNA polymerase β (Rattus norvegicus, UniProt P06766). The experiment in a line: DNA polymerase assay, pol. β. Type of experiment: biochemical. The settings on record: for MIC Pol. β: Minimum inhibitory concentration: dose that resulted in inhibition of 80% or more of the activity.
The next experiment addresses T1, DNA polymerase α (Bos taurus, UniProt A0AAA9TD94).
T1 sequence (A0AAA9TD94 1-1441): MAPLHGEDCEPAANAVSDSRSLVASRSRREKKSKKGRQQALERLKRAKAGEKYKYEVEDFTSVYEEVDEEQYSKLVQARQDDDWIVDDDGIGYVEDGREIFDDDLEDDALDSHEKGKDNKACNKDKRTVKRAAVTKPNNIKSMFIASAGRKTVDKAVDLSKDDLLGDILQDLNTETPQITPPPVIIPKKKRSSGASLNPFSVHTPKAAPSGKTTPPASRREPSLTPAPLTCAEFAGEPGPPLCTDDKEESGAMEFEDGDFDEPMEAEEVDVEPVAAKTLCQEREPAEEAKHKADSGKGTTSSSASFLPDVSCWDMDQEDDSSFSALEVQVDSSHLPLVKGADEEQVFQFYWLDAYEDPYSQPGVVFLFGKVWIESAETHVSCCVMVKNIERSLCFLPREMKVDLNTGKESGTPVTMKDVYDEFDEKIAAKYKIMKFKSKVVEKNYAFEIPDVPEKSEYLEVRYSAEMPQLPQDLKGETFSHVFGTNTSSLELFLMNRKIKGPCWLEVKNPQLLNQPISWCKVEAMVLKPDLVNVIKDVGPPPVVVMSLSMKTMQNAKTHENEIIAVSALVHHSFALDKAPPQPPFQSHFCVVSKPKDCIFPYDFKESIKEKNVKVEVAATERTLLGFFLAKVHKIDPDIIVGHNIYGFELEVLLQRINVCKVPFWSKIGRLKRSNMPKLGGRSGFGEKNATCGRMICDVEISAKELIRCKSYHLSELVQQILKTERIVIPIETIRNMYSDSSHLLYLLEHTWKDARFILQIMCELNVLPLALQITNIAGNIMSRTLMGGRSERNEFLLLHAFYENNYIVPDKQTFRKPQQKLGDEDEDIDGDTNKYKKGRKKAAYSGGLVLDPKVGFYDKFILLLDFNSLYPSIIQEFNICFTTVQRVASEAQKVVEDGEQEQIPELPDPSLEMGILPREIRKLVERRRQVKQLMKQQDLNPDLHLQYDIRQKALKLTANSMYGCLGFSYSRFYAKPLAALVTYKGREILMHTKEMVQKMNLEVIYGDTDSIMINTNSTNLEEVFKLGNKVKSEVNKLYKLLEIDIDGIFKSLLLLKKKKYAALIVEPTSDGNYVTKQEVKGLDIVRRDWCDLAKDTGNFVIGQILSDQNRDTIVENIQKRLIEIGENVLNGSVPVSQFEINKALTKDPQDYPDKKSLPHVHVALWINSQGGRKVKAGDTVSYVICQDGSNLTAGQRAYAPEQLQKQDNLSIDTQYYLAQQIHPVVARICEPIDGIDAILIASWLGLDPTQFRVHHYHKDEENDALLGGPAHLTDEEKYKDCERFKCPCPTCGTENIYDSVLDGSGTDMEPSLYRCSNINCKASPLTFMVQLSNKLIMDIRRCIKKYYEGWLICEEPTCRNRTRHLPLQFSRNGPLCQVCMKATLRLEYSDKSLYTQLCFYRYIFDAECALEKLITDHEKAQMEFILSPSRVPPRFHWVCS
The experiment in a line: DNA polymerase assay, pol. α. Format: biochemical, calf. The settings on record: Table I; for MIC Pol. α: Minimum inhibitory concentration: dose that resulted in inhibition of 80% or more of the activity; for IC50: 50%-inhibitory concentration.

Setting [1] is: read-out: IC50 Pol. β, 50%-inhibitory concentration, Table I.

In brackets after ≈: the same amount, converted by molar mass. Several values for one entry are separate records, joined by “and”; a condition that tells them apart may be missing. Equal entries are not always repeated. Where two headings read alike, the source gives them in different places. Some results are limits rather than exact numbers.

On to `CCCCCCCCCCCCCCCC(=O)OC[C@@H](O)CO[C@H]1O[C@H](CS(=O)(=O)O)[C@@H](O)[C@H](O)[C@H]1O` [C16--SQMG], for which the MIC Pol. β on DNA polymerase β (Table I) is 43 µM and 46 µM. In addition, the IC50 at DNA polymerase β (setting [1]) is 34 µM and 36 µM; at DNA polymerase α (read-out: IC50 Pol. α) it was 4 µM and 5.9 µM. Also, the MIC Pol. α at DNA polymerase α was 9.1 µM and 14 µM.

For `O=S(=O)(O)C[C@H]1O[C@H](OCC(O)CO)[C@H](O)[C@@H](O)[C@@H]1O` (stereo partly drawn) [I&II&III + Quinovose + -], the half-maximal inhibitory concentration (IC50) at DNA polymerase β (setting [1]) and on DNA polymerase α (read-out: IC50 Pol. α) was greater than 1000 µM throughout.

Take `CCCCCCCCCCCCCCCC(=O)OC[C@H](CO[C@H]1O[C@H](CS(=O)(=O)O)[C@@H](O)[C@H](O)[C@H]1O)OC(=O)CCCCCCCCCCCCCCC` [C16--SQDG]: the MIC Pol. β on DNA polymerase β (Table I) is 45 µM and 46 µM. Moreover, the concentration for half-maximal inhibition (IC50) on DNA polymerase β (setting [1]) turned out to be 25 µM. In addition, the MIC Pol. α on DNA polymerase α is 3.4 µM and 3.6 µM.

For `CCCCCCCCCCCCCCCC(=O)OCC(CO)OC(=O)CCCCCCCCCCCCCCC` (stereo not drawn), the IC50 on DNA polymerase β (setting [1]) was greater than 1000 µM; on DNA polymerase α (read-out: IC50 Pol. α), 470 µM. The compound further returned an MIC Pol. α on DNA polymerase α greater than 1000 µM.

Regarding `CCCCCCCCCCCCCCCCCC(=O)O` [Stearic acid (18:0), Stearic acid, reference compound], the IC50 on DNA polymerase β was 130 µM; at DNA polymerase α (IC50 Pol. α) it was 12 µM and 8 µM. This compound also displayed an MIC Pol. β on DNA polymerase β (Table I) of 250 µM (≈ 71.1 µg/mL). The same compound came in with an MIC Pol. α on DNA polymerase α of 35 µM (≈ 9.96 µg/mL).

Turning to `O=S(=O)(O)C[C@@H]1OC(OCC(O)CO)[C@@H](O)[C@H](O)[C@@H]1O` (stereo partly drawn) [I&II&III + Fucose + -], the IC50 on DNA polymerase β (setting [1]) and on DNA polymerase α (read-out: IC50 Pol. α) was greater than 1000 µM in each case.

`C[C@@H]1OC(O)[C@H](O)[C@H](O)[C@H]1O` (stereo partly drawn) [II - Rhamnose - -, Rhamnose]: the IC50 at DNA polymerase β (setting [1]) and on DNA polymerase α (read-out: IC50 Pol. α) was greater than 1000 µM each time.

Take `C[C@H]1OC(O)[C@H](O)[C@@H](O)[C@@H]1O` (stereo partly drawn) [II - Quinovose - -, Quinovose]: the IC50 at DNA polymerase β and at DNA polymerase α (IC50 Pol. α) was greater than 1000 µM in each case.

Regarding `C[C@@H]1OC(OCC(O)CO)[C@H](O)[C@H](O)[C@H]1O` (stereo partly drawn) [II&III - Rhamnose + -], the IC50 at DNA polymerase β (setting [1]) and at DNA polymerase α (read-out: IC50 Pol. α) was greater than 1000 µM in each case.

As for `CCCCCCCCCCCCCCCCCC(=O)OCC(O)CO` (stereo not drawn) [III&IV - - + Stearic acid (18:0)/H], the IC50 at DNA polymerase β (setting [1]) is greater than 1000 µM; at DNA polymerase α (read-out: IC50 Pol. α), 650 µM. Further, at DNA polymerase α, the MIC Pol. α was greater than 1000 µM.

As to `C[C@H](O)[C@@H](O)[C@@H](O)[C@H](O)C=O` [II - Fucose - -, Fucose], the IC50 against DNA polymerase β and on DNA polymerase α (IC50 Pol. α) was greater than 1000 µM each time.

In the case of `CCCCCCCCCCCCCC(=O)OC[C@H](CO[C@H]1O[C@H](CS(=O)(=O)O)[C@@H](O)[C@H](O)[C@H]1O)OC(=O)CCCCCCCCCCCCC` [C14--SQDG], the MIC Pol. β at DNA polymerase β (Table I) was 37 µM and 40 µM. Besides, the IC50 at DNA polymerase β (setting [1]) was 23 µM and 20 µM; at DNA polymerase α (read-out: IC50 Pol. α), 1.8 µM and 1.9 µM. The MIC Pol. α on DNA polymerase α is 5.3 µM and 5.2 µM.

Consider `C[C@@H]1OC(OCC(O)CO)[C@@H](O)[C@H](O)[C@@H]1O` (stereo partly drawn) [II&III - Fucose + -], for which the IC50 on DNA polymerase β (setting [1]) and on DNA polymerase α (read-out: IC50 Pol. α) was greater than 1000 µM each time.

In the case of `C[C@H]1OC(OCC(O)CO)[C@H](O)[C@@H](O)[C@@H]1O` (stereo partly drawn) [II&III - Quinovose + -], the IC50 on DNA polymerase β (setting [1]) and at DNA polymerase α (read-out: IC50 Pol. α) was greater than 1000 µM each time.

As for `CCCCCCCCCCCCCCCC(=O)O` [Palmitic acid (16:0), Palmitic acid, reference compound], the IC50 against DNA polymerase β was determined as 290 µM; at DNA polymerase α (IC50 Pol. α) it was 42 µM. On DNA polymerase β (Table I), this compound had an MIC Pol. β of 500 µM (≈ 128 µg/mL). This compound returned an MIC Pol. α at DNA polymerase α of 100 µM (≈ 25.6 µg/mL).

Turning to `CCCCCCCCCCCCCC(=O)OCC(CO)OC(=O)CCCCCCCCCCCCC` (stereo not drawn), the IC50 on DNA polymerase β (setting [1]) was greater than 1000 µM; on DNA polymerase α (read-out: IC50 Pol. α) it was 550 µM. For the same compound, at DNA polymerase α, the MIC Pol. α is greater than 1000 µM.

As for `CCCCCCCCCCCCCC(=O)OCC(O)CO` (stereo not drawn) [III&IV - - + Myristic acid (14:0)/H], the IC50 on DNA polymerase β (setting [1]) is greater than 1000 µM; at DNA polymerase α (read-out: IC50 Pol. α) it was 750 µM. Also, the MIC Pol. α on DNA polymerase α is greater than 1000 µM.

As to `CCCCCCCCCCCCCC(=O)O` [Myristic acid (14:0), Myristic acid, reference compound], the IC50 is 440 µM against DNA polymerase β and 95 µM at DNA polymerase α (IC50 Pol. α). At DNA polymerase β (Table I), this compound yielded an MIC Pol. β greater than 1000 µM. The same compound came in with an MIC Pol. α on DNA polymerase α of 180 µM (≈ 41.1 µg/mL).
